Source: patent publication EP0416248A2, “Use of vitamine B6 for reducing elevated serotonin levels” (priority 1989, dated 1991)
Like-named read-outs stand apart in the source and are kept apart here.

Tests used:
[1] = system: B6 dependent intracellular pathways; experiment: Very low doses of PN in humans; type: in vivo; details: 0,02 mg/kg in humans
[2] = system: vitamin B6 levels in human plasma and cells; experiment: Applicant's investigations of enprofylline and vitamin B6 levels
serotonin = type: in vivo, humans
Protocol: Studies on humans: The study was approved by the University Human Ethics Committee. Seven apparently healthy, young male volunteers aged 23 ± 2.4 ( ± SD) years gave informed consent to participate in the study. Each participant received theophylline (slow release) at a dosage of approximately 5 mg/kg body weight/day for one week. Thereafter, the theophylline dosage was increased to maintain plasma theophylline levels of approx. 10 mg/liter for 15 weeks. During the last week of the study (16th week) the participants were supplemented with 10 mg of vitamin B6 (B6) as herein described per day.
Clin. Chem. 35: 43-47. Serotonin concentrations were subsequently determined by HPLC according to the method of Tsuchiya et al.)

[3] = system: glutamate pyruvate transaminase (GPT) in red blood cells; type: in vivo, human
Protocol: The inventor carried out clinical tests in human volunteers to investigate the effect of theophylline on glutamate pyruvate transaminase (GPT) in red blood cells, which plays an important biochemical role. […] When theophylline was administered there took place a dramatic drop in both PLP due to the inactivation of the kinase, and after approximately 28 days, also of RBC GPT levels as newly formed RBC (produced in the bone marrow under conditions of reduced PLP availability) begin to appear in the circulation.
As predicted, the body did indeed try to compensate for this by forming progressively more kinase. […] Thus the increased levels of kinase were unable to reverse the theophylline induced PLP deficiency and the concommittant GPT deficiency.

PL-kinase = biological target: T1, PL-kinase (Homo sapiens, UniProt O00764); experiment: Enzyme kinetic studies of PL-kinase inhibition; type: biochemical
T1 sequence (O00764 1-312): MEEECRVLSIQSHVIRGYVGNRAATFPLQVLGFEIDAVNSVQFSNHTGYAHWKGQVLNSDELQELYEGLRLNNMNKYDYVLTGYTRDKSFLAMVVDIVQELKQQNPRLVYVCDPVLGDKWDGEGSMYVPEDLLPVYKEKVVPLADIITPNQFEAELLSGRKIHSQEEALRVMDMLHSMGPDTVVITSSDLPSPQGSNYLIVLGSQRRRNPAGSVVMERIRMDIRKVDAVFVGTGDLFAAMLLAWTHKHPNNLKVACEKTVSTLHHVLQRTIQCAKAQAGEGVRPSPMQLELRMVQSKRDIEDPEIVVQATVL

Cc1ncc(CO)c(C=O)c1O [PL, pyridoxal]
half-life (in vivo): 30 to 40 min

Cc1ncc(CO)c(CO)c1O [PN, pyridoxine]
extracellular PL and PLP levels [1]: without affecting extracellular PL and PLP levels materially | influence on B6 dependent intracellular pathways [1]: profound influence | half-life (plasma): 12 min

CCCn1c(=O)[nH]c(=O)c2[nH]cnc21 [enprofylline, 3-propylxanthine]
effect on vitamin B6 levels in human plasma and cells [2]: adverse effect

Cn1c(=O)c2[nH]cnc2n(C)c1=O [theophylline]
Urinary serotonin excretion, Basal (serotonin; 112 days of theophylline treatment, preceded by 1 week of vitamin B6 supplementation (10 mg/day), mean (SD)): 0.562 (0.127) umol/24 h | Urinary serotonin excretion after tryptophan loading (serotonin; human, in vivo): the observed changes were not statistcially significant | PLP ([3]; human, in vivo): dramatic drop | PLP content and GPT content ([3]; human, in vivo): remained depressed for as long as 100 days | type of PL-kinase inhibition (PL-kinase): non-competitive

Cc1ncc(CO)c(CO)c1O.Cl [vitamin B6]
urinary serotonin excretion (serotonin; one week of B6 supplementation (10 mg per day) during theophylline therapy): returned urinary serotonin excretion to pre-treatment levels | PLP deficiency induced by the xanthine bronchodilator ([3]; low dosage supplementation with Vitamin B6): almost immediately reversed
